Data set [1] concerns the target T1, androgen receptor (Homo sapiens, UniProt P10275).
T1 construct: expressed in transfected cells; host or cells: PC3
T1 sequence (P10275 1-920): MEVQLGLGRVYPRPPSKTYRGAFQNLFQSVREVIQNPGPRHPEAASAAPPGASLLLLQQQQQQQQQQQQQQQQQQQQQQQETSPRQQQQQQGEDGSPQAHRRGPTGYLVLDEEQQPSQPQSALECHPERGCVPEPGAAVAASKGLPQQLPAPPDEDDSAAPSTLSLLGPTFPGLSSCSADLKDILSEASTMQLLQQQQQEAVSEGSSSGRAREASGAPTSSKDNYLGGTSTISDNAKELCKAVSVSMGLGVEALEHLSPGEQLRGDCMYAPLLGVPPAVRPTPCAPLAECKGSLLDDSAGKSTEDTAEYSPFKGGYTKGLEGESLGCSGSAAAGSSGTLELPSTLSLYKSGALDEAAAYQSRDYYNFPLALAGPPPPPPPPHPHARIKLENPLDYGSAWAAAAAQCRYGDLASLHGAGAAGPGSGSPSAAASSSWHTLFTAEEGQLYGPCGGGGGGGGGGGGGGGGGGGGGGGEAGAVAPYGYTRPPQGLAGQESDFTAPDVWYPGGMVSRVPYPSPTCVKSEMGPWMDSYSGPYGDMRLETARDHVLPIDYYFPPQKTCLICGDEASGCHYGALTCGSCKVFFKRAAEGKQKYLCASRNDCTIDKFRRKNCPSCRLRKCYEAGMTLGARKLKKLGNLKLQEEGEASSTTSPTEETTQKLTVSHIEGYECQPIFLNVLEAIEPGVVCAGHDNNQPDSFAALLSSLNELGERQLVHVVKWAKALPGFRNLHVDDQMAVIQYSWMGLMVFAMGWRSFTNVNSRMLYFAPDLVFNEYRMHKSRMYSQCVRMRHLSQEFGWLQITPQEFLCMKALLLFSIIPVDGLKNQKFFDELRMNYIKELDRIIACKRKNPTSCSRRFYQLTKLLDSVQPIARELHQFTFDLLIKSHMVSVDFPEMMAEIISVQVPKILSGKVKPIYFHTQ
The data set can be described thus: Androgen receptor luciferase reporter (ARR3tk-luc) assay. It counts as cell-based. The settings on record: PC3 cells transfected with AR; 1 nM R1881; 1, 5 or 10 μM. Here is the method: All of the compounds selected from the virtual screening were tested in a luciferase-based ERG-responsive reporter assay, using two ERG-overexpressing cell lines, VCaP and PNT1B-ERG, previously developed in house. […] Data were normalized first to Renilla luciferase and then to the DMSO-media control on each plate, unless otherwise stated. Initial hit compounds were identified as those with an average normalized luciferase reading (firefly luciferase/Renilla luciferase readings) that is 60% or less of the average normalized luciferase reading of the DMSO-media control (i.e. 40% or more reduction of luciferase activity) at 10 μM. Representative example of raw Renilla luciferase readings presented in Supplementary Figure 9B. […]
Supplementary Figure 3: VPC-18005 selectively suppresses ERG-mediated transcriptional activity. […] Data are presented as the mean ± SEM of 4 technical replicates and expressed as luciferase:renilla ratio (activity).
(B) Luciferase assay was performed on VCaP cells transfected with ETS responsive luciferase reporter and treated with DMSO (0) or 0.1, 1, or 10 nM R1881 in the presence of 25 μM of VPC-18005. Data are presented as the mean ± SEM of 4 technical replicates and expressed as the luciferase:renilla ratio relative to VPC-18005 alone. […]
A general note: A reporter such as luciferase makes a cellular process visible.

Data set [2] relates to RWPE-ERG cells. Nature of the data set: Real time cell migration (xCELLigence), RWPE-ERG. It counts as cell-based. The settings on record: 5 µM; compared to MOCK control. Here is the method:
Cell migration was monitored using CIM-16 migration plates via the xCELLigence platform (ACEA). FBS-supplemented media (160 μL) was added to the lower chamber of the plate and incubated at RT for 30 min. The upper chamber was then mounted and 30 μL of serum free media (SFM) was added to each well and left to equilibrate in the incubator for 1 h at 37°C. After the incubation, a background reading was taken for each well. […] Real time readings of cell index values were recorded initially every 5 min until the end of the experiment (48 hr). page 8: Supplementary Figure 4: VPC-18005 suppresses migration, but not growth of RWPE-1-ERG cells. (A) Cell viability (MTS) of ERG-expressing cells (RWPE-ERG) (closed circle) and non-ERG expressing cells (RWPE-MOCK (open square)) after treatment […] Impact on viability is presented as the mean ± SEM […] (B) RWPE-1-Mock or (C) […] The normalized cell index is a measure of the migration of the cells through the pores of the upper chamber and is used as the migration index. Dotted lines represent 1 standard deviation (SD) of the mean migration rate.

Data set [3] concerns VCaP cells. Further details: method as in PMID 21559405. The settings on record: read-out: IC50 for cytotoxicity in VCaP cells; cited from earlier work.

As to `CC(C)c1ccc(C=N/N=C2\NC(=O)[C@@H](CC(=O)O)S2)cc1` (stereo in doubt) [VPC-18005, 2-((Z)-2-(((Z)-4-isopropylbenzylidene)hydrazono)-4-oxothiazolidin-5-yl)acetic acid], in data set [1], the “Effect on androgen receptor luciferase reporter (ARR3tk-luc) expression” value is on record as “no significant effect”. In data set [2], the “Effect on RWPE-ERG cell migration” value is “moderate effect”.

As usually defined, the IC50 is the concentration at which inhibition is half-maximal. For the compound `COc1ccc(C(=O)CC2(O)C(=O)Nc3c(Cl)ccc(Cl)c32)cc1` (stereo not drawn) [YK-4-279, reference compound], in data set [3], the IC50 is 10 µM.

The values are drawn from paper PMC5522078, “Discovery and characterization of small molecules targeting the DNA-binding ETS domain of ERG in prostate cancer” (Oncotarget, 2017).
